From ChEMBL document CHEMBL1153355, “Synthesis and cytotoxic activities of novel phenacylimidazolium bromides” (Bioorg Med Chem Lett, 2009)

Assays:
Format in all cases: functional, cell-based
SK-OV-3 = assay: Cytotoxicity against human SKOV3 cells by MTT assay
[1] = Cytotoxicity against human GLC15 cells by MTT assay
HL-60 = assay: Cytotoxicity against human HL60 cells by MTT assay
MKN-28 = assay: Cytotoxicity against human MKN28 cells by MTT assay
SMMC-7721 = assay: Cytotoxicity against human SMMC7721 cells by MTT assay
K562 = assay: Cytotoxicity against human K562 cells by MTT assay
HEp-2 = assay: Cytotoxicity against human Hep2 cells by MTT assay
A-431 = assay: Cytotoxicity against human A431 cells by MTT assay

SMILES | IC50 (SK-OV-3) [µM] | IC50 [1] [µM] | IC50 (HL-60) [µM] | IC50 (MKN-28) [µM] | IC50 (SMMC-7721) [µM] | IC50 (K562) [µM] | IC50 (HEp-2) [µM] | IC50 (A-431) [µM]
CC(C)c1cccc(C(C)C)c1-n1cc[n+](CC(=O)c2ccc(Br)cc2)c1 | 11.3 | 18.4 | 3.8 | 35.3 | 10.9 | 2.8 | 9.2 | 4.6
Cc1cc(C)c(-n2cc[n+](CC(=O)C(C)(C)C)c2)c(C)c1 | 192 | > 200 | 113 | > 200 | 154 | > 200 | 132 | > 200
COc1ccc(CCn2cc[n+](CC(=O)c3ccc4ccccc4c3)c2)cc1OC | 11 | 50.2 | 54.2 | 85.4 | 34.4 | 169 | 77.2 | 75
COc1ccc(C(=O)C[n+]2ccn(CCc3ccc(OC)c(OC)c3)c2)cc1 | 37.4 | 33.4 | 50.4 | > 200 | 62.3 | > 200 | 62.3 | 188
Cc1cc(C)c(-n2cc[n+](CC(=O)c3ccccc3)c2)c(C)c1 | 29.9 | > 200 | 31.3 | > 200 | 16.8 | > 200 | 97.6 | 15.6
COc1ccc(C(=O)C[n+]2ccn(C(C)(C)C)c2)cc1 | > 200 | 179 | > 200 | > 200 | > 200 | > 200 | 117 | 66.2
O=C(C[n+]1ccn(C23CC4CC(CC(C4)C2)C3)c1)c1ccccc1 | 59.3 | 108 | 39 | 198 | 108 | > 200 | 93.4 | 13.3
O=C(C[n+]1ccn(C23CC4CC(CC(C4)C2)C3)c1)c1ccc2ccccc2c1 | 4 | 0.8 | 4.2 | 12.8 | 7.7 | 3.4 | 0.8 | 6.4
Cc1cc(C)c(-n2cc[n+](CC(=O)c3ccc4c(c3)COC4)c2)c(C)c1 | 31.5 | 23.5 | 6.1 | 85.3 | 33.5 | 70.1 | 12.3 | 18.2
CC(C)c1cccc(C(C)C)c1-n1cc[n+](CC(=O)c2ccc3c(c2)COC3)c1 | 25.5 | 36.9 | 4.5 | 59.6 | 44.3 | 12.1 | 11.6 | 5.1
Cc1cc(C)c(-n2c[n+](CC(=O)c3ccc4ccccc4c3)c(C)c2C)c(C)c1 | 3.7 | 4.3 | 4.1 | 1.7 | 9.8 | 0.2 | 1.9 | 3.9
CC(=O)Cc1ccc(-n2cc[n+](CC(=O)c3ccccc3)c2)cc1 | > 200 | 53.5 | 25.8 | > 200 | 53.4 | > 200 | > 200 | 7
COc1ccc(C(=O)C[n+]2ccn(-c3ccc(CC(C)=O)cc3)c2)cc1 | 61.1 | 26.5 | 44.4 | 140 | 91.6 | 16.7 | 84.8 | 14.5
COc1ccc(C(=O)C[n+]2ccn(-c3ccc([N+](=O)[O-])cc3)c2)cc1 | 26.6 | 97.6 | 8.6 | 113 | > 200 | 113 | 41.6 | 75.5
COc1ccc(C(=O)C[n+]2ccn(-c3c(C(C)C)cccc3C(C)C)c2)cc1 | 5 | 5.1 | 1.1 | 10 | 9.9 | 2.6 | 2.8 | 4.2
Cc1cc(C)c(-n2cc[n+](CC(=O)c3ccc(Br)cc3)c2)c(C)c1 | 33.1 | 36.9 | 13.4 | 76.6 | 23.8 | 21.4 | 22.1 | 5.4
CC(C)(C)n1cc[n+](CC(=O)c2ccccc2)c1 | > 200 | > 200 | > 200 | > 200 | > 200 | > 200 | > 200 | > 200
COc1ccc(C(=O)C[n+]2ccn(C34CC5CC(CC(C5)C3)C4)c2)cc1 | 5.6 | 59.3 | 14.7 | 158 | 27.9 | 1.5 | 7.1 | 6.3
COc1ccc(C(=O)C[n+]2ccn(-c3c(C)cc(C)cc3C)c2)cc1 | 1.6 | 2.2 | 3.1 | 5 | 4.7 | 2.4 | 1.5 | 1.7
CC(C)c1cccc(C(C)C)c1-n1cc[n+](CC(=O)c2ccc3ccccc3c2)c1 | 1.9 | 6.2 | 1.5 | 9.6 | 10.5 | 0.4 | 3.5 | 14.7
Cc1cc(C)c(-n2cc[n+](CC(=O)c3ccc4ccccc4c3)c2)c(C)c1 | 2.1 | 0.4 | 2.8 | 8.7 | 6.8 | 2.7 | 0.7 | 4.4
